Reference: US20250161196A1, “Antioxidant Compositions” (THE BOOTS COMPANY PLC, priority 2022, published 2025)

Assay: Total Antioxidant Capacity (TAC) assay, Cell Biolabs kit, copper ion reduction, absorbance at 490 nm
Assay type: biochemical
Conditions: for Total Antioxidant Capacity (TAC): absorbance 490 nm, triplicate; for TAC of the individual antioxidant agent: Table 1 / FIG. 1, single agent alone
Procedure: Total antioxidant capacity (TAC) was determined using a kit (Cell Biolabs, Inc) as follows; the test samples were diluted in water and a buffer to reach a final antioxidant agent to buffer ratio ranging from 1:1 to 1:1,000,000. 20 ul of test sample or control (ascorbic acid or green tea) were added to the wells of 96 well plate, followed by 180 μL of 1× Reaction Buffer (provided with the kit). The absorbance of the reaction mix in each well was measured at 490 nm to get an initial reading. 50 μL of the 1× Copper Ion Reagent (provided with the kit) were added to each well to initiate the reaction. The reaction was allowed to carry on for 5 minutes on an orbital shaker and 50 μL of 1× Stop Solution (provided with the kit) added to each well to terminate the reaction. The colour change was assessed using a plate reader at 490 nm.
The stronger the colour change at the end of the reaction, the higher the spectrophotometric value, and the higher the antioxidant capacity of the antioxidant agents.
21 antioxidant compounds were tested in triplicate at antioxidant: buffer ratios ranging from 1:1 to 1:1,000,000. […]

[1] = Antioxidant:Buffer 1:1 (concentration 1)
[2] = Antioxidant:Buffer 1:10 (concentration 0.1)
[3] = Antioxidant:Buffer 1:100 (concentration 0.01)

| Compound | Total Antioxidant Capacity (TAC) [1] | Total Antioxidant Capacity (TAC) [2] | Total Antioxidant Capacity (TAC) [3] | TAC of the individual antioxidant agent |
| --- | --- | --- | --- | --- |
| O=C1O[C@H]([C@@H](O)CO)C(O)=C1O [Ascorbic Acid (Control), Ascorbic Acid, reference compound] | 2.6 | 1.6 | 0.7 | – |
| COc1cc2c(cc1O)CCC(C)(C)O2 [Dimethylmethylmethoxy chromanol, Dimethylmethoxy chromanol] | 1.839 | 1.807 | 1.824 | 1.671 |
| COc1cc(/C=C/C(=O)O)ccc1O [Ferulic acid] | 1.911 | 1.808 | 1.991 | 1.583 |
